Assay results taken from patent publication US7423159B2, “Agent for preventing or treating neuropathy” (Takeda Pharmaceutical Company Limited, priority 2002, dated 2008).

Columns and labels:
PC12 cells = assay: neuroprotective action (neurite network formation) in PC12 cells; type: cell-based; conditions: test compound 0.3-3.0 μmol/L, two days, DMEM with 0.5% FCS and 2 ng/mL NGF; observed under a microscope
Protocol: Using PC12 cells, the neuroprotective action of the compound of the present invention was evaluated.
PC12 cells were precultured for one day in a DMEM (Dulbecco's Modified Eagle's Medium) culture solution containing 10% FCS (Fetal Calf Serum) in an incubator at 37° C., 5% CO2, and seeded at 5×10^3/well in a 24 well plate (Falcon) in the same medium. After the cells adhered to the bottom surface, the culture was changed to a DMEM culture solution containing 0.5% FCS and 2 ng/mL of NGF (Wako Pure Chemical Industries, Ltd.). After culturing overnight, the test compound was added at a concentration of 0.3-3.0 μmol/L and the cells were cultured for two more days. Gultalaldehyde was added to the cultured to a final concentration of 2% and the cells were fixed for 1 hr., after which stained with a Diff-Quick (International Reagents Corporation). The cells were washed, dried with air and observed under a microscope.

rat C6 glioma cells = assay: GDNF production promoting action in rat C6 glioma cells (ELISA of culture supernatant); type: cell-based; conditions: Rattus norvegicus, C6 glioma, 48 h; concentration which causes 50% increase of GDNF relative to the control group; cultured 2 days with test compound; GDNF in culture supernatant by ELISA
Protocol: Using rat C6 glioma cells, the GDNF production promoting action of the compound of the present invention was evaluated.
Rat C6 glioma cells (ATCC) were grown in Dulbecco's Modified Eagle's Medium (DMEM) containing 10% FBS (Fetal Bovine Serum) in a collagen type 1 coated 75 cm^2 culture flask (SUMITOMO BAKELITE Co., Ltd.) until near confluent, detached by trypsin treatment and washed once with DMEM containing 10% FBS.
The cells after washing were diluted with 10% FBS-containing DMEM to a concentration of 5×10^4/mL and seeded at 0.3 mL/well in each well of collagen type 1 coated 48 well culture dish (SUMITOMO BAKELITE Co., Ltd.). After 3 days, the culture in the culture dish was placed in a 1% BSA (bovine serum albumin, Sigma)-containing DMEM medium supplemented with various concentrations of test compound, and further cultured for 2 days. The culture supernatant was recovered and preserved at −80° C. until measurement of GDNF.
The content of GDNF in the culture supernatant was measured by the following ELISA Method.
Anti-GDNF antibody (MAB212, R&D) was diluted with TBS (Tris buffered physiological saline: 25 mmol/L Tris-HCl (pH 8.0), 150 mmol/L NaCl) to 2 μg/mL and dispensed at 0.1 mL/well to each well of a 96-well immunoplate. The 96-well immunoplate was incubated overnight at 4° C. and washed once with TBS containing Tween 20 at 0.05% (hereinafter to be abbreviated as TBST). A blocking solution (TBS containing 1% BSA and 5% sucrose) was added at 0.2 mL/well to each well after washing, and the plate was incubated at room temperature for 1 hr., after which each well was washed twice with TBST. The culture supernatant (0.1 mL) of the aforementioned C6 cells was added to each well after washing and the plate was incubated at room temperature for 3 hrs., after which the wells were washed 5 times with TBST. The 500-fold diluted anti-GDNF antibody (G2791, Promega) was added by 0.1 mL to each well after washing, incubated at room temperature for 2 hrs. and washed 5 times with TBST. A 5000-fold diluted horseradish peroxidase-labeled anti-chicken IgY antibody (G1351, Promega) was added at 0.1 mL/well to each well after washing, incubated at room temperature for 2 hrs. and washed 5 times with TBST. A substrate solution (TMB substrate solution, BIO-RAD) was added at 0.1 mL/well to each well after washing and allowed to develop color at room temperature for 8 min. To stop the reaction, 0.1 mL of 1 mol/L phosphoric acid was added to each well in coloring developing reaction. The absorbance of the reaction solution at 450 nm wavelength was measured.
In the same manner as above except the test compound was not used, the ELISA Method was performed and this was used as a control group.
Using various concentrations of GDNF (Promega), ELISA Method was performed in the same manner as above and standard line was prepared.
From the aforementioned absorbance and standard line, GDNF content in a sample was calculated and the concentration (EC50), which causes 50% increase of GDNF relative to the control group was calculated from the regression line.

melting point [°C] | EC50 (rat C6 glioma cells) [µM] | Structure (SMILES) | formation of neurite network (PC12 cells)
213 to 214 | 0.12 | Cn1ncc(/C=C/C(=O)Nc2ccc(Cn3ccnc3)cc2)c1-c1ccc(F)cc1 [Example 159, (2E)-3-[5-(4-fluorophenyl)-1-methyl-1H-pyrazol-4-yl]-N-[4-(1H-imidazol-1-ylmethyl)phenyl]acrylamide] | promoted formation of neurite network
228 to 229 | 0.31 | CN1C(=O)SC(Cc2ccc(NC(=O)/C=C/c3cnn(C)c3-c3ccc(F)cc3)cc2)C1=O (stereo not drawn) [Example 110, (2E)-3-[5-(4-Fluorophenyl)-1-methyl-1H-pyrazol-4-yl]-N-{4-[(3-methyl-2,4-dioxo-1,3-thiazolidin-5-yl)methyl]phenyl}acrylamide] | promoted formation of neurite network
189 to 191 | 0.13 | Cn1ncc(/C=C/C(=O)Nc2ccc(Cn3cccn3)cc2)c1-c1ccc(F)cc1 [Example 161, (2E)-3-[5-(4-Fluorophenyl)-1-methyl-1H-pyrazol-4-yl]-N-[4-(1H-pyrazol-1-ylmethyl)phenyl]acrylamide] | promoted formation of neurite network
– | 1.6 | Cn1ncc(/C=C/C(=O)Nc2ccc(C(O)c3ccccn3)cc2)c1-c1ccc(F)cc1 (stereo not drawn) [Example 49, (2E)-3-[5-(4-Fluorophenyl)-1-methyl-1H-pyrazol-4-yl]-N-{4-[hydroxy(2-pyridinyl)methyl]phenyl}acrylamide] | promoted formation of neurite network
259 to 260 | 0.22 | CCCC(=O)NCc1ccc(NC(=O)/C=C/c2cnn(C)c2-c2ccc(F)cc2)cc1 [Example 140, (2E)-N-{4-[(Butyrylamino)methyl]phenyl}-3-[5-(4-fluorophenyl)-1-methyl-1H-pyrazol-4-yl]acrylamide] | –
225 to 226 | 0.19 | Cn1ncc(/C=C/C(=O)Nc2ccc(Cn3cncn3)cc2)c1-c1ccc(F)cc1 [Example 163, (2E)-3-[5-(4-Fluorophenyl)-1-methyl-1H-pyrazol-4-yl]-N-[4-(1H-1,2,4-triazol-1-ylmethyl)phenyl]acrylamide] | –
232 to 233 | 0.59 | Cc1nccn1Cc1ccc(NC(=O)/C=C/c2cnn(C)c2-c2ccc(F)cc2)cc1 [Example 190, (2E)-3-[5-(4-Fluorophenyl)-1-methyl-1H-pyrazol-4-yl]-N-{4-[(2-methyl-1H-imidazol-1-yl)methyl]phenyl}acrylamide] | –
211 to 212 | 0.49 | Cn1ncc(/C=C/C(=O)Nc2ccc(CCc3cscn3)cc2)c1-c1ccc(F)cc1 [Example 91, (2E)-3-[5-(4-Fluorophenyl)-1-methyl-1H-pyrazol-4-yl]-N-{4-[2-(1,3-thiazol-4-yl)ethyl]phenyl}acrylamide] | –

Structure (SMILES) | melting point [°C] | EC50 (rat C6 glioma cells) [µM] | formation of neurite network (PC12 cells)
CCOP(=O)(Cc1ccc(NC(=O)/C=C/c2cnn(C)c2-c2ccc(F)cc2)cc1)OCC [Example 2, (2E)-N-[4-(Diethylphosphonomethyl)phenyl]-3-[5-(4-fluorophenyl)-1-methyl-1H-pyrazol-4-yl]acrylamide] | – | 0.4 | promoted formation of neurite network
COP(=O)(Cc1ccc(NC(=O)/C=C/c2cnn(C)c2-c2ccc(F)cc2)cc1)OC [Example 1, (2E)-N-[4-(dimethylphosphonomethyl)phenyl]-3-[5-(4-fluorophenyl)-1-methyl-1H-pyrazol-4-yl]acrylamide] | 209 to 210 | 0.2 | –
CCOP(=O)(Cc1ccc(NC(=O)/C=C/c2cnn(C)c2-c2ccc(Cl)cc2)cc1)OCC [Example 9, (2E)-3-[5-(4-Chlorophenyl)-1-methyl-1H-pyrazol-4-yl]-N-[4-(diethylphosphonomethyl)phenyl]acrylamide] | 217 to 218 | 2.5 | –
CCOP(=O)(Cc1ccc(NC(=O)/C=C/c2snnc2-c2ccc(F)cc2)cc1)OCC [Example 71, (2E)-N-[4-(Diethylphosphonomethyl)phenyl]-3-[4-(4-fluorophenyl)-1,2,3-thiadiazol-5-yl]acrylamide] | 173 to 175 | 1.7 | –
